Laboratory results as given in US12636331B2, “Composition for preventing or treating lung cancer, comprising a compound isolated from Cephalotaxus extract as an active ingredient” (priority 2020, dated 2026).

Tests used:
[1] = tested on: p21 protein; assay: Western blot for p21 protein in 2D-cultured NCI-H460; assay type: cell-based; conditions: NCI-H460 2D, 48 hours, low concentrations below the ED50
Procedure: NCI-H460 cell line was cultured in 2D, treated with IHT at the indicated concentration for 48 hours, and then Western blots were performed to measure changes in p21 protein.
(§1) The cells were dissolved in a RIPA (radio immunoprecipitation) buffer containing protease inhibitors, phosphatase inhibitors, PMSF (phenylmethylsulfonyl fluoride), and DTT (dithiothreitol), and protein concentration was quantified with a micro BCA test kit. Equal amounts of protein was added to a polyacrylamide gel containing SDS (Sodium dodecyl sulphate), isolated by electrophoresis, and transferred to a polyvinylidene difluoride (PVDF) membrane. The membrane was blocked with a solution containing 5%-TBST (tris-buffered saline with Tween20) milk, and the primary antibody was exposed at 4 degrees Celsius for 16 hours.
The antibodies used were as follows: β-actin (sc-477778), p53 (sc-126), Bax (sc-526) (Santacruz Biotechnology); cleaved caspase-7 (Asp198) (#9491), cleaved poly (ADP-ribose) polymerase (PARP) (#9541), X chromosome-linked inhibitor of apoptosis (XIAP) (#2045), Survivin (#2808), p21 (#2947), phospho-Akt (#9275), cleaved caspase-9 (#9501), caspase-9 (#9502), caspas-8 (#9746), phospho-Stat3 (#9145) (Cell Signaling Technology). […]

[2] = tested on: NCI-H460 tumorspheroids; assay: LIVE/DEAD cell death staining of tumorspheroids; assay type: cell-based; conditions: NCI-H460 tumorspheroids, 1,3,5 uM IHT, 72 hours
Procedure: (§2) After the IHT was treated with NCI-H460 and A549 tumorspheroids for 72 hours, the cell death was observed using LIVE/DEAD Viability/Cytotoxicity Kit (Thermo Scientific). Live cells were stained with green fluorescence-labeled calcein-AM, dead cells were stained with red fluorescence-labeled ethidium homodimer-1 (EthD-1), and images were taken at 100× magnification using the Operetta High Content Screening (HCS) System.

[3] = tested on: A549 tumorspheroids; assay: 3D tumorspheroid growth (CellTiter-Glo 3D); assay type: cell-based
Procedure: (§3) A549 and NCI-H460 cell lines were placed in 96-well ultra-low attachment (ULA) plates at 7,000 and 1500 cells/well, and centrifuged at 1000 rpm for 10 minutes. Then, they were cultured in Roswell Park Memorial Institute (RPMI) 1640 medium mixed with 0.5% Matrigel, 10% Fetal Bovine Serum (FBS), and 1× penicillin-streptomycin for 2 days. They were treated with IHT, and the degree of cell growth was measured with CellTiter-Glo 3D (Promega, Madison, WI, USA) reagent after 72 hours, and 2D cultured cells were exposed to IHT at the indicated concentration for 48 hours, and then the cell growth was measured with CellTiter-Glo reagent. The average effective dose ED50 of IHT was determined by analyzing the dose-response curve with GraphPad Prism, and the results are shown in FIG. 2. The scale bar was 100 μm, and all data were expressed as mean±standard deviation.
(§4) After IHT was treated onto the 3D tumorspheroid of NCI-H460, or siNR4A1 and IHT were treated in combination on the 3D tumorspheroid of A549, the growth inhibition and cell death induction of tumorspheroids were observed. Negative control (siNC) or siNR4AT-transfected A549 and non-transfected NCI-H460 tumorspheroids were treated with IHT at each concentration, and after 48 and 72 hours, the cell growth was measured using CellTiter-Glo 3D cell viability assay kit (Promega). A549 cells were transfected with […] siRNA using Lipofectamine 2000 (Invitrogen), and siNR4A1 of SEQ ID NO: 1 (5′-GAGCUAUUCCAUGCCUACG-3′) and SEQ ID NO: 2 (5′-GGAUACUGGAUACACCCGU-3′) were mixed and used.

[4] = tested on: NCI-H460 tumorspheroids; assay: 3D tumorspheroid growth (CellTiter-Glo 3D); assay type: cell-based
Procedure: as §3, §4

[5] = tested on: A549 tumorspheroids; assay: Annexin V / 7-AAD flow cytometry; assay type: cell-based; conditions: 72 hours
Procedure: (§5) An experiment was designed to confirm whether cell death induced in 3D tumorspheroids was apoptosis. Induction of apoptosis was examined after treating NCI-H460 tumorspheroids with IHT or treating A549 tumorspheroids with IHT along with siNC or siNR4A1. NCI-H460 and siRNA-treated A549 tumorspheroids were treated with IHT at the indicated concentrations for 72 hours, and then apoptosis was measured using a Cell Death detection ELISA kit. Further, after IHT treatment for 72 hours, single cells were isolated from tumorspheroids, stained with Annexin V and 7-AAD, and analyzed by a flow cytometry. Apoptotic cell population was represented as the ratio of cells in the early apoptotic processes that are annexin V-positive/7-AAD-negative, and terminal apoptotic process positive for both annexin V/7-AAD (FIG. 5). All data are expressed as mean±standard deviation. *p<0.05 indicates a significant difference compared to a control group, and **p<0.01 indicates a significant difference compared to a control group.
Further, using the phenomenon that annexin V was exposed to the outside of the cell membrane in the early stage of apoptosis, cells were stained with annexin V, stained with 7-Amino-Actinomycin D (7-AAD) penetrating into dead cells, and analyzed with a flow cytometry, thus showing apoptosis and cell death.

[6] = tested on: A549 tumorspheroids; assay: LIVE/DEAD cell death staining of tumorspheroids; assay type: cell-based; conditions: 72 hours
Procedure: as §4, §2

[7] = tested on: A549 xenograft tumors; assay: A549 xenograft tumor growth; assay type: in vivo; conditions: athymic nude mice, intratumoral IHT 20 μg/kg (500 ng) twice a week with siNR4A1 once a week, 4 weeks
Procedure: Further, A549 cells (5×10^6) were inoculated into the dorsal side of athymic nude mice, and when the tumor size reached 100-150 mm^3, siRNA (50 pmoles) and IHT (500 ng) were intratumorally administered once a week and twice a week, respectively, for 4 weeks. The tumor size was monitored twice a week, and tumor volume was calculated by the following Equation 3. […] V(mm^3)=length×width×width/2 [Equation 3]

[8] = tested on: C. elegans jgIs25 (EGFR T790M-L858R); assay: Multivulva (Muv) formation in C. elegans with EGFR double mutation; assay type: in vivo
Description: In non-small cell lung cancer patients with EGFR (epidermal growth factor receptor) exon21 mutation (L858R), the therapeutic effect of EGFR-TKI (tyrosine kinase inhibitor) is excellent. However, tolerance develops quickly, one mechanism of which is because the second mutation (L858R, T790M) occurs in EGFR. C. elegans with EGFR double mutation (L858R, T790M) causes cell proliferation (multivulva formation). It was observed whether cell proliferation could be inhibited upon IHT treatment. This is an in vivo system that can predict the therapeutic effect of lung cancer resistant to EGFR-TKIs, by introducing genetic mutations observed in cells showing drug resistance to the EGFR-TKI (tyrosine kinase inhibitor) used as a therapeutic agent for human lung cancer.
After IHT treatment to C. elegans jgIs25, observations were performed using a differential interference contrast (DIC) microscope. 0.5% DMSO was used as a vehicle control. […] 0.1% DMSO as a control or 5 μM IHT was. Data are expressed as mean±standard error, **P<0.01 and ***P<0.001.

[9] = tested on: A549 tumorspheroids; assay: Western blot of apoptosis-related proteins; assay type: cell-based
Procedure: as §1
(§6) The antibodies used were as follows: β-actin (sc-477778), p53 (sc-126), Bax (sc-526) (Santacruz Biotechnology); cleaved caspase-7 (Asp198) (#9491), cleaved poly (ADP-ribose) polymerase (PARP) (#9541), X chromosome-linked inhibitor of apoptosis (XIAP) (#2045), Survivin (#2808), p21 (#2947), phospho-Akt (#9275), cleaved caspase-9 (#9501), caspase-9 (#9502), caspas-8 (#9746), phospho-Stat3 (#9145) (Cell Signaling Technology).
(§7) Subsequently, the membrane was washed with TBSP, and then exposed to the secondary antibody conjugated with HRP (horseradish peroxidase, Santacruz Biotechnology) at room temperature for 1 hour, washed, and film-developed using an ECL (enhanced chemiluminescence, Amersham) kit to observe the bands.
(§8) In the induction of apoptosis by the intrinsic pathway, a decisive process is the release of cytochrome C inside mitochondria to the outside due to changes in mitochondrial membrane potential. After 48 hours of treatment to measure mitochondrial membrane potential changes, tumorspheroids were isolated into single cells and stained with JC-1, and flow cytometry was used to measure the percentage of mitochondria-damaged cells. The percentage of cells in which JC-lexists as a single entity, meaning a decrease in mitochondrial membrane potential, was indicated. In addition, A549 tumorspheroids transfected with negative control (siNC) or siNR4A1 and NCI-H460 tumorspheroids were treated with IHT for 48 hours, and then subjected to Western blot analysis for apoptosis-related protein changes, and the results are shown in FIG. 6.

[10] = tested on: NCI-H460 tumorspheroids; assay: Western blot of apoptosis-related proteins; assay type: cell-based
Procedure: as §1, §6, §7, §8

[11] = tested on: A549 tumorspheroids; assay: Apoptosis by Cell Death detection ELISA kit; assay type: cell-based; conditions: 72 hours
Procedure: as §5

[12] = tested on: NCI-H460 tumorspheroids; assay: Apoptosis by Cell Death detection ELISA kit; assay type: cell-based; conditions: 72 hours
Procedure: as §5

[13] = tested on: A549 tumorspheroids; assay: Combined treatment of cisplatin and IHT, tumorspheroid cell growth; assay type: cell-based
Procedure: A549 tumorspheroids were grown for 3 days, then subjected to the combined treatment of cisplatin and IHT at the indicated concentrations.

[14] = tested on: A549 tumorspheroids; assay: Mitochondrial membrane potential (JC-1, flow cytometry); assay type: cell-based; conditions: IHT 1 uM and siNR4A1 simultaneously, 48 hours
Procedure: as §8

[15] = tested on: NCI-H460 tumorspheroids; assay: as above; assay type: cell-based; conditions: 3 uM IHT, 48 hours
Procedure: as §8

[16] = tested on: NCI-H460 cell line; assay: 2D culture cell growth (CellTiter-Glo); assay type: cell-based; conditions: Homo sapiens; 2D culture NCI-H460, 48 hours; read-out: ED50, cell proliferation
Procedure: as §3

[17] = tested on: A549 cell line; assay: 2D culture cell growth (CellTiter-Glo); assay type: cell-based; conditions: Homo sapiens; 2D culture A549, 48 hours; read-out: ED50, cell proliferation
Procedure: as §3

[18] = A549 tumorspheroids with inhibition of NR4A1 expression (siNR4A1), IHT 1 uM

COC(=O)[C@@H](O)[C@](O)(CCC(C)C)C(=O)O[C@@H]1C(OC)=C[C@]23CCCN2CCc2cc4c(cc2C13)OCO4 (stereo partly shown) [IHT, isoharringtonine]
change in p21 protein [1]: increased p21
cell death of tumorspheroids [2]: effectively induced at all concentrations
growth inhibition of tumorspheroids [3, 18]: rapid growth-inhibitory effect
growth inhibition of tumorspheroids ([3]; A549 tumorspheroids, IHT alone (siNC), 48 and 72 hours): did not have a significant growth-inhibitory effect
EC50 ([3]; Homo sapiens, A549 3D tumorspheroid, 72 hours, ED50 'predicted'): 9.6 ± 1.12 µM
EC50 ([4]; Homo sapiens, 3D tumorspheroid of NCI-H460, 72 hours, read-out: average effective amount (ED50), tumorspheroid growth): 143 ± 40 nM
growth inhibition of tumorspheroids ([4]; NCI-H460 tumorspheroids, 1,3,5 uM IHT, 48 and 72 hours): effectively induced at all concentrations
apoptosis (annexin V/7-AAD) ([5]; IHT alone): did not induce apoptosis
apoptosis (annexin V/7-AAD) ([5]; simultaneous treatment with siNR4A1, IHT 1 μM): sharply increased apoptosis
cell death of tumorspheroids [6, 18]: sharply induced cell death
cell death of tumorspheroids ([6]; A549 tumorspheroids, IHT alone): did not induce cell death
xenograft tumor suppression (tumor volume) [7]: tumor suppressive effects were observed
multivulva formation ([8]; C. elegans jgIs25, high concentrations of IHT): multivulva formation was significantly inhibited
multivulva formation ([8]; C. elegans jgIs25, low IHT concentration (5 μM) with sinhr-6 (nhr-6 RNAi)): multivulva formation was significantly inhibited
multivulva formation ([8]; C. elegans jgIs25, low concentration (5 uM) IHT): multivulva formation was not inhibited
cleavage of caspase-9 ([9]; IHT+siNR4A1, 48 hours): induced the cleavage of caspoase-9
Mcl-1 and XIAP protein ([9]; both IHT and siNR4A1, 48 hours): induced a reduction of Mcl-1 and XIAP
phospho-Akt ([9]; both IHT and siNR4A1, 48 hours): reduction of phospho-Akt
Bcl-2 and Mcl-1 protein ([10]; 48 hours): induces the reduction of Bcl-2 and Mcl-1
Survivin and XIAP protein ([10]; 48 hours): induces the decrease of Survivin and XIAP
p53 protein ([10]; 48 hours): induces an increase in p53
phospho-Akt ([10]; 48 hours): reduction of phospho-Akt
cleavage of caspase-9 ([10]; IHT 48 hours): induced the cleavage of caspoase-9
apoptosis (DNA fragments, ELISA) ([11]; IHT alone): apoptosis was not induced
apoptosis (DNA fragments, ELISA) ([11]; simultaneous treatment with siNR4A1, IHT 1 uM): sharply increased apoptosis
apoptosis (DNA fragments, ELISA) [12]: increased from 1 uM in a dose-dependent manner
cell growth inhibition ([13]; A549 tumorspheroids, 10 μM IHT in combination with 10 μM cisplatin, 3 days): stronger inhibition of cell growth
cell growth inhibition ([13]; A549 tumorspheroids, 10 μM IHT, 3 days): very effectively inhibited
inhibition at 1 µM ([13]; Homo sapiens, A549, 72 h, read-out: cell growth inhibition): ~48%
mitochondrial membrane potential [14]: induced a decrease in mitochondrial membrane potential
mitochondrial membrane potential [15]: changes in mitochondrial membrane potential were induced
EC50 [16]: 94 ± 20 nM
EC50 [17]: 481 ± 50 nM

N.N.[Cl][Pt][Cl] [cisplatin, reference compound]
inhibition of tumorspheroid growth ([13]; A549 tumorspheroids, 30 μM cisplatin alone, 3 days): significant but minute inhibition of growth
